The values that follow are results of earlier work, collected in paper PMC3388044, “Probing of Exosites Leads to Novel Inhibitor Scaffolds of HCV NS3/4A Proteinase” (PLoS ONE, 2012).

Read-outs that look alike come from different tables or passages of the source.

The subject of data set [1] is HCV replicon (WT NS3/4A). The note with it: HCV replicon with luciferase readout; cited from earlier work.
Data set [2] relates to HCV replicon (NS3/4A V36M). The note with it: cited from earlier work; for IC50: mutant HCV replicon with luciferase readout.
Data set [3] concerns HCV replicon (NS3/4A R155K). The note with it: cited from earlier work; for IC50: mutant HCV replicon with luciferase readout.
Data set [4] deals with HCV replicon (NS3/4A A156T). The note with it: cited from earlier work; for IC50: mutant HCV replicon with luciferase readout.
Data set [5] relates to HCV replicon (NS3/4A D168A). Conditions: cited from earlier work; for D168A FC (replicon): fold change vs WT, mutant HCV replicon; for IC50: mutant HCV replicon with luciferase readout.
Data set [6] has as its system NS3/4A (WT). The note with it: purified recombinant WT NS3/4A in vitro; read-out: WT IC50 (purified enzyme); cited from earlier work.
Data set [7] concerns NS3/4A V36M. The note with it: cited from earlier work.
The test system of data set [8] is NS3/4A R155K. Conditions: cited from earlier work.
Data set [9] deals with NS3/4A D168A. The note with it: cited from earlier work.
For data set [10], the target named is NS3/4A. More on the design: method as in PMID 19505593. The note with it: cited from earlier work.
Data set [11] deals with HCV replicon (NS3/4A V170A). Conditions: cited from earlier work.
The mark [12] stands for this setting: fold change vs WT, mutant HCV replicon.
The mark [13] stands for this setting: fold change vs WT, purified recombinant enzyme.

Turning to `CCC[C@H](NC(=O)[C@@H]1[C@H]2CCC[C@H]2CN1C(=O)[C@@H](NC(=O)[C@@H](NC(=O)c1cnccn1)C1CCCCC1)C(C)(C)C)C(=O)C(=O)NC1CC1` [Telaprevir, telaprevir], the IC50 is 150 nM in data set [1]; 886 nM in [2]; 1470 nM in data set [3]; 20300 nM in [4]; 46 nM in data set [5]; 24 nM in data set [6]. Also, the IC50 is 270 nM in [7] (purified recombinant mutant NS3/4A in vitro, read-out: V36M IC50 (purified enzyme)); 115 nM in [8] (purified recombinant mutant NS3/4A in vitro, read-out: R155K IC50 (purified enzyme)); 9 nM in data set [9] (purified recombinant mutant NS3/4A in vitro, read-out: D168A IC50 (purified enzyme)). The “A156T FC (replicon)” value in data set [4] (setting [12]) is reported as 105. The “D168A FC (replicon)” value in data set [5] is reported as 0.4. In addition, the “V36M FC (purified enzyme)” value in data set [7] (setting [13]) was 11.3. In addition, in data set [8] (setting [13]), the “R155K FC (purified enzyme)” value was 4.8. For the same molecule, in [9] (setting [13]), the “D168A FC (purified enzyme)” value was 0.4. Also, the Ki is about 40 nM in data set [10] (improved KI after fast covalent bond formation, read-out: KI after covalent bond formation) and about 6000 nM in data set [10] (initial non-covalent binding step, read-out: KI, non-covalent binding step).
As for `CC(C)(C)NC(=O)N[C@H](C(=O)N1C[C@H]2[C@@H]([C@H]1C(=O)NC(CC1CCC1)C(=O)C(N)=O)C2(C)C)C(C)(C)C` (some centres unmarked) [Boceprevir, boceprevir], the IC50 in data set [1] is 148 nM; in data set [2], 217 nM; in data set [3] it was 743 nM; in data set [4] it was 7230 nM; in data set [5], 100 nM; in [11] (mutant HCV replicon with luciferase readout), 1550 nM. Besides, in data set [2] (setting [12]), the “V36M FC (replicon)” value was 1.8. Besides, in [3] (setting [12]), the “R155K FC (replicon)” value was 4.7. For the same molecule, the “D168A FC (replicon)” value in data set [5] is 0.7. For the same molecule, in data set [11] (setting [12]), the “V170A FC (replicon)” value is given as 5.8.
